Measured values as given in publication PMC6072853 (Frontiers in Pharmacology, 2018).

Legend:
Format in all cases: cell-based, human
HeLa = test: MTT antiproliferative assay, HeLa; conditions: Homo sapiens, 72 h; for inhibition at 10 µM / inhibition at 30 µM: read-out: Growth inhibition (%) ± SEM
Excerpt: (§1) Gynecological cancer cell lines, including ovarian (A2780), cervical (HeLa), and breast cancer cell lines (MCF7, T47D, MDA-MB-231, and MDA-MB-361) were purchased from the European Collection of Authenticated Cell Cultures (ECACC, Salisbury, United Kingdom). Additional cervical cell lines (SiHa and C33A) and a non-cancerous immortalized, mammary gland epithelial cell line (hTERT-HME1) were purchased from LGC Standards GmbH (Wesel, Germany). Non-cancerous fibroblast cells (MRC-5) were also obtained from the ECACC. All cells were cultured in minimal essential medium supplemented with 10% fetal bovine serum, 1% non-essential amino acids, and 1% antibiotic-antimycotic mixture, in humidified air containing 5% CO2 at 37°C. Immortalized hTERT-HME1 cells were maintained in serum-free mammary epithelial cell growth medium (MEGM) supplemented with insulin, human epidermal growth factor (hEGF), hydrocortisone, bovine pituitary extract, and an antibiotic-antimycotic mixture. All the medium and supplements were purchased from Lonza Group Ltd. (Basel, Switzerland).
(§2) The antiproliferative properties of the compounds were assessed by an MTT assay ([Mosmann, 1983]). Cells were seeded onto 96-well microplates at a density of 10,000 cells/well (MDA-MB-361 and C33A) or 5,000 cells/well (all other cell lines). After an overnight incubation, fresh medium containing the test compounds (at a concentration of 10 or 30 μM) was added. After incubation for 72 h at 37°C in humidified air, [3-(4,5-dimethylthiazol-2-yl)-2,5-diphenyltetrazolium bromide] (MTT) solution (5 mg/mL) was added. Purple formazan crystals were formed by the living cells during a 4 h contact period, which were assayed by spectrophotometry after having been dissolved in 100 μL DMSO. Untreated cells served as control, and cisplatin (CIS) (Ebewe Pharma GmbH, Unterach, Austria) was used as a reference compound. […] Two independent measurements were performed with five parallel wells. To present preliminary data concerning tumor selectivity of the potent compounds, the procedure was repeated on MRC-5 fibroblast and hTERT-HME1 immortalized mammary gland epithelial cells under the same experimental conditions.

SiHa = test: MTT antiproliferative assay, SiHa; conditions: Homo sapiens, 72 h, read-out: Growth inhibition (%) ± SEM
Excerpt: as §1, §2

C33A = test: MTT antiproliferative assay, C33A; conditions: Homo sapiens, C-33-A, 72 h, read-out: Growth inhibition (%) ± SEM
Excerpt: as §1, §2

A2780 = test: MTT antiproliferative assay, A2780; conditions: Homo sapiens, 72 h, read-out: Growth inhibition (%) ± SEM; for inhibition at 10 µM: A2780, 10 μM; for inhibition at 30 µM: A2780, 30 μM
Excerpt: as §1, §2

MCF-7 = test: MTT antiproliferative assay, MCF-7; conditions: Homo sapiens, MCF7, 72 h, read-out: Growth inhibition (%) ± SEM; for inhibition at 10 µM: MCF-7, 10 μM; for inhibition at 30 µM: MCF-7, 30 μM
Excerpt: as §1, §2

MDA-MB-231 = test: MTT antiproliferative assay, MDA-MB-231; conditions: Homo sapiens, 72 h, read-out: Growth inhibition (%) ± SEM; for inhibition at 10 µM: MDA-MB-231, 10 μM; for inhibition at 30 µM: MDA-MB-231, 30 μM
Excerpt: as §1, §2

MDA-MB-361 = test: MTT antiproliferative assay, MDA-MB-361; conditions: Homo sapiens, 72 h, read-out: Growth inhibition (%) ± SEM; for inhibition at 10 µM: MDA-MB-361, 10 μM; for inhibition at 30 µM: MDA-MB-361, 30 μM
Excerpt: as §1, §2

T47D = test: MTT antiproliferative assay, T47D; conditions: Homo sapiens, 72 h, read-out: Growth inhibition (%) ± SEM
Excerpt: as §1, §2

MRC-5 = test: MTT assay, non-cancerous fibroblasts MRC-5; conditions: Homo sapiens, MRC5, 72 h, read-out: Growth inhibition (%) ± SEM
Excerpt: as §1, §2

Structure (SMILES)	inhibition at 10 µM (HeLa)	inhibition at 30 µM (HeLa)	IC50 (HeLa; read-out: calculated IC50 value)	inhibition at 10 µM (SiHa)	inhibition at 30 µM (SiHa)	inhibition at 10 µM (C33A)	inhibition at 30 µM (C33A)	inhibition at 10 µM (A2780)	inhibition at 30 µM (A2780)	inhibition at 10 µM (MCF-7)	inhibition at 30 µM (MCF-7)	inhibition at 10 µM (MDA-MB-231)	inhibition at 30 µM (MDA-MB-231)	inhibition at 10 µM (MDA-MB-361)	inhibition at 30 µM (MDA-MB-361)	inhibition at 10 µM (T47D)	inhibition at 30 µM (T47D)	inhibition at 10 µM (MRC-5; MRC-5, 10 μM)	inhibition at 30 µM (MRC-5; MRC-5, 30 μM)
C[C@]12CC[C@H]3[C@@H](CCC4=CC(=O)CC[C@@H]43)[C@@H]1CC[C@H]2I [Compound 5]	95.2 ± 0.4%	95.8 ± 0.2%	1490 nM	< 20%	< 20%	< 20%	< 20%	27.7 ± 1.3%	61.6 ± 1.8%	< 20%	< 20%	< 20%	< 20%	< 20%	< 20%	< 20%	< 20%	13.1 ± 1.9%	13.8 ± 2%
C[C@]12CC[C@H]3[C@@H](CCC4=CC(=O)CC[C@@H]43)[C@@H]1CC[C@H]2OC(=O)c1ccc([N+](=O)[O-])cc1[N+](=O)[O-] [Compound 6, 17α-19-nortestosterone-17-yl 2′,4′-dinitrobenzoate]	32 ± 2.9%	26.5 ± 2.3%	–	< 20%	< 20%	< 20%	< 20%	< 20%	31.9 ± 2.6%	< 20%	35.9 ± 1.4%	< 20%	< 20%	< 20%	< 20%	< 20%	47.2 ± 2.6%	–	–
C[C@]12CC[C@H]3[C@@H](CCC4=CC(=O)CC[C@@H]43)[C@@H]1CC[C@H]2OC(=O)c1cc([N+](=O)[O-])cc([N+](=O)[O-])c1 [Compound 7, 17α-19-nortestosterone-17-yl 3′,5′-dinitrobenzoate]	26.6 ± 1.8%	21.5 ± 1.9%	–	< 20%	< 20%	< 20%	< 20%	49.2 ± 0.9%	58.1 ± 2%	25.9 ± 3.1%	37.7 ± 3.4%	< 20%	< 20%	< 20%	22 ± 1.6%	< 20%	< 20%	–	–
